Results as given in US6545002B1 (University of Virginia Patent Foundation, priority 1999, dated 2003).

Key:
rat A2A receptors (rA2A) = molecular target: T1, rat A2A receptors (rA2A) (Rattus norvegicus, UniProt P30543); assay: Displacement of [3H]CGS 21680 binding in rat striatal membranes; settings: Table 4; read-out: rA2A Ki
T1 construct: to A2A receptors from rat striatal membranes was performed as described; from tissue; host or cells: rat striatal membranes
Method: (§1) Bruns, R. F. et al., Naunyn-Schmiedeberg's Arch. […] Binding of [^3H]R-N^6-phenylisopropyladenosine. Schwabe, U. et al., Naunyn-Schmiedeberg's Arch. […] (Dupont NEN, Boston, Mass.) to A2A receptors from rat striatal membranes was performed as described. […] All non-radioactive compounds were initially dissolved in DMSO, and diluted with buffer to the final concentration, where the amount of DMSO never exceeded 2%. Incubations were terminated by rapid filtration over Whatman GF/B filters, using a Brandell cell harvester (Brandell, Gaithersburg, Md.). The tubes were rinsed three times with 3 mL buffer each.
(§2) At least six different concentrations of competitor, spanning 3 orders of magnitude adjusted appropriately for the IC50 of each compound, were used. IC50 values, calculated with the nonlinear regression method implemented in (Graph-Pad Prism, San Diego, Calif.), were converted to apparent Ki values as described. Linden, J., J. Cycl. Nucl.

rat A1 receptors (rA1) = molecular target: T2, rat A1 receptors (rA1) (Rattus norvegicus, UniProt P25099); assay: Displacement of [3H]R-PIA binding in rat brain (cerebral cortical) membranes; settings: Table 4; read-out: rA1 Ki
T2 construct: to A1 receptors from rat cerebral cortical membranes; from tissue; host or cells: rat cerebral cortical (brain) membranes
T2 sequence (P25099 1-326): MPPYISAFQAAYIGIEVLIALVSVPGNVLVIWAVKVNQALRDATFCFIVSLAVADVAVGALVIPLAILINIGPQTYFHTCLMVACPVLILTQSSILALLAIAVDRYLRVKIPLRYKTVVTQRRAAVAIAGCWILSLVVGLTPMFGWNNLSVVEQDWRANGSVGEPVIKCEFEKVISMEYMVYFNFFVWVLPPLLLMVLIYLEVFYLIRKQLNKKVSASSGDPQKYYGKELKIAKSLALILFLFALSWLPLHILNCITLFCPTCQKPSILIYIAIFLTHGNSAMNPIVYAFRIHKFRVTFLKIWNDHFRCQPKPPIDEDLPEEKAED
Method: as §1, §2

[1] = molecular target: T3, human A2B receptors (hA2B) (Homo sapiens, UniProt P29275); assay: Radioligand binding ([125I]ABOPX / [3H]ZM241385) at human A2B receptors expressed in HEK-293 cells; settings: Table 4; for rA1/hA2B: Ki ratio; for Ki: unmarked value, first of two binding assays, read-out: hA2B Ki
T3 construct: expressed in transfected cells; host or cells: HEK-293 (HEK-A2B, G418-selected)
T3 sequence (P29275 1-332): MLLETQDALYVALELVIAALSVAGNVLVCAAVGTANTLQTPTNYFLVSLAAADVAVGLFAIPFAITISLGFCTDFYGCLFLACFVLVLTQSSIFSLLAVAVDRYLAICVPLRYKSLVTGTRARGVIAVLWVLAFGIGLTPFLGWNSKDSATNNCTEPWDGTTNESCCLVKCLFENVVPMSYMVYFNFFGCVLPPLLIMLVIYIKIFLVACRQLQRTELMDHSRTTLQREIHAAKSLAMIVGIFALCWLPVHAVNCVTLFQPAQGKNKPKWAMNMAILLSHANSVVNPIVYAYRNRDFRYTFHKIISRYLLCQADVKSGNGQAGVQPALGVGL

human A3 receptors (hA3) = molecular target: T4, human A3 receptors (hA3) (Homo sapiens, UniProt P0DMS8); assay: Displacement of [125I]AB-MECA binding at human A3 receptors expressed in HEK-293 cells (Table 4)
T4 construct: expressed in transfected cells; host or cells: HEK-293
T4 sequence (P0DMS8 1-318): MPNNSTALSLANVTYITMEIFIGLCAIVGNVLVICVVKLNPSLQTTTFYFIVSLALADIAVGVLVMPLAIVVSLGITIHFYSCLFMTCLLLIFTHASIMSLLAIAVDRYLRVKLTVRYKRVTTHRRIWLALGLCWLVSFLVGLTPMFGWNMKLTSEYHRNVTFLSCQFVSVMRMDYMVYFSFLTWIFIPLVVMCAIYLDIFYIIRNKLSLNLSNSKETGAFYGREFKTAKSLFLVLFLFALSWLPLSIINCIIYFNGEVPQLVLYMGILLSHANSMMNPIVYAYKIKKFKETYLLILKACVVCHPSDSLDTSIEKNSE

T1 sequence (P30543 whole entry): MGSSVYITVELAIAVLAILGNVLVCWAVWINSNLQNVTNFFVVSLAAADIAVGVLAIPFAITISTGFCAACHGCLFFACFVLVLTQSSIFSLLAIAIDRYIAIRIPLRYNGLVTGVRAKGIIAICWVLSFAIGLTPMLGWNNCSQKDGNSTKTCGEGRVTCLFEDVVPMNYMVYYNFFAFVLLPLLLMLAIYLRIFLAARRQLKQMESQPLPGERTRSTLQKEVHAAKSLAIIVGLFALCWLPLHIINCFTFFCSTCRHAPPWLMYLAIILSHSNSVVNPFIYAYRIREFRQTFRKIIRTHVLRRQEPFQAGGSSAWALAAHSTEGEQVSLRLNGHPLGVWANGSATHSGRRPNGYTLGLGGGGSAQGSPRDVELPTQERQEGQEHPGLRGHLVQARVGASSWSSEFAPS

Row | Compound | Ki (rat A2A receptors (rA2A)) [nM] | Ki (rat A1 receptors (rA1)) [nM] | rA1/hA2B [1] | Ki [1] [nM] | Ki (human A3 receptors (hA3)) [nM]
1 | CCCn1c(=O)c2[nH]c(-c3ccc(OCC(=O)NN4C(=O)C[C@H](NC(=O)C(F)(F)F)C4=O)cc3)nc2n(CCC)c1=O [Compound 44, 8-[4-[(Carboxymethyl)oxy]phenyl]-1,3-di-(n-propyl)xanthine N,N-[((2S)-Trifluoroacetamido)succinyl]hydrazide] | 139 ± 32 | 74.3 ± 6.6 | 2.5 | 30.2 ± 0.5 | 1560
2 | CCCn1c(=O)c2[nH]c(-c3ccc(OCC(=O)NN4C(=O)C=C(C)C4=O)cc3)nc2n(CCC)c1=O [Compound 46, 8-[4-[(Carboxymethyl)oxy]phenyl]-1,3-di-(n-propyl)xanthine N,N-Citraconylhydrazide] | 1230 ± 270 | 203 ± 41 | 1.4 | 144 ± 11 | 551 ± 106
3 | CCCn1c(=O)c2[nH]c(-c3ccc(OCC(=O)NN4C(=O)C(c5ccccc5)=C(c5ccccc5)C4=O)cc3)nc2n(CCC)c1=O [Compound 50, 8-[4-[(Carboxymethyl)oxy]phenyl]-1,3-di-(n-propyl)xanthine N,N-[(1,2-Diphenyl)maleyl]hydrazide] | 2100 ± 630 | 95.8 ± 25.1 | 3.4 | 27.9 ± 8.5 | 3450 ± 1470

Results, then the compound that gave them:

Row | Ki (rat A2A receptors (rA2A)) [nM] | Ki (rat A1 receptors (rA1)) [nM] | rA1/hA2B [1] | Ki [1] [nM] | Ki (human A3 receptors (hA3)) [nM] | Compound
4 | 164 ± 61 | 41.2 ± 16.6 | 1.6 | 25.7 ± 5.5 | 290 ± 88 | CCCn1c(=O)c2[nH]c(-c3ccc(OCC(=O)NN4C(=O)CC(O)CC4=O)cc3)nc2n(CCC)c1=O [Compound 59, 8-[4-[(Carboxymethyl)oxy]phenyl]-1,3-di-(n-propyl)xanthine N,N-(3-Hydroxy)glutarylhydrazide]
5 | 708 ± 169 | 81.7 ± 31.2 | 1.0 | 78.5 ± 20.5 | 1180 ± 700 | CCCn1c(=O)c2[nH]c(-c3ccc(OCC(=O)NNC(=O)C4=C(C(=O)O)CCC4)cc3)nc2n(CCC)c1=O [Compound 53, 8-[4-[(Carboxymethyl)oxy]phenyl]-1,3-di-(n-propyl)xanthine N-[2-((1-Carboxy)-1-cyclopentene)-carbonyl]hydrazide]
6 | 813 ± 299 | 134 ± 19 | 2.6 | 51 ± 7 | 1060 ± 150 | CCCn1c(=O)c2[nH]c(-c3ccc(OCC(=O)NNC(=O)C4CC=CCC4C(=O)O)cc3)nc2n(CCC)c1=O (stereo not drawn) [Compound 51, 8-[4-[(Carboxymethyl)oxy]phenyl]-1,3-di-(n-propyl)xanthine N-[2-((1-Carboxy)-cis-4-cyclohexene)-carbonyl]hydrazide]
7 | 415 ± 157 | 61.9 ± 11.3 | 1.7 | 35.8 ± 0.7 | 245 ± 45 | CCCn1c(=O)c2[nH]c(-c3ccc(OCC(=O)NN4C(=O)C5=C(CCCC5)C4=O)cc3)nc2n(CCC)c1=O [Compound 56, 8-[4-[(Carboxymethyl)oxy]phenyl]-1,3-di-(n-propyl)xanthine N,N-(3,4,5,6-Tetrahydrophthaloyl)hydrazide]
